Reference: patent US20250051403A1, “ANTIMICROBIAL PEPTIDES, VARIANTS AND CHEMICAL ANALOGUES THEREOF AND THEIR USES” (priority 2021, published 2025)
Like-named read-outs stand apart in the source and are kept apart here. Positions of bridges follow the written chain, without caps; N, C: chain ends. Residues, ends and D or L forms follow the SMILES beside them.

Key:
[1] = system: human lung fibroblasts (IMR90 cells (ATCC CCL-186)); assay: Cytotoxicity; assay type: cell-based; conditions: even at doses>80 μM
human erythrocytes = assay: Haemolytic assay; assay type: cell-based
Method: The hemolytic activity of the peptides was determined using fresh human erythrocytes from healthy donors. Blood was centrifuged and the erythrocytes were washed three times with a phosphate-buffered saline (PBS: 35 mM phosphate buffer/150 mM NaCl, pH 7.4). […] Samples were incubated at 37° C. for 60 min. After incubating the mixtures were centrifuged at 1,500 rpm for 10 min. The release of hemoglobin was monitored by measuring the absorbance (Abs) of the supernatant at 405 nm. Hemolytic rates of 0 and 100% were determined in PBS and 0.1% Triton X-100, respectively. The percentage of hemolysis was calculated by employing the following equation: Percentage hemolysis=[([…])/(Abs405 nm in 0.1% Triton X-100−Abs405 nm in PBS)]×100.

P. aeruginosa [2] = system: P. aeruginosa
[3] = system: Human Bronchial Epithelial Cell Line (BEAS; ATCC CRL-9609); assay: Cytotoxicity, resazurin cell viability; assay type: cell-based; conditions: even at doses>80 μM
Method: (§1) The toxicity of Michelicin on human cells was tested as previously described (Borie et al., 2017; Oyama et al., 2017). Briefly, human cells were cultured in Dulbecco's modified essential medium (DMEM) supplemented with 10% fetal calf serum (FCS), 1% L-glutamine and 1% antibiotics (all from Invitrogen). Cells were routinely grown in onto 25 cm^2 flasks maintained in a 5% CO2 incubator at 37° C. For toxicity assay, cells grown on 25 cm^2 flasks were detached using trypsin-EDTA solution (Thermofisher) and seeded into 96-well cell culture plates (Greiner Bio-one) at approximately 10^4 cells per well (counted using Mallasez's chamber). The cells were grown at 37° C. in a 5% CO2 incubator until they reached confluence (approximately 48-72 h of seeding). Wells were then aspirated and increasing concentrations of AMP were added to the cells and incubated for a further 48 h at 37° C. in a 5% CO2 incubator. The wells were then emptied, and cell viability was evaluated using resazurin based in vitro toxicity assay kit (Sigma-Aldrich) following manufacturer's instructions. Briefly, resazurin stock solution was diluted 1:100 in sterile PBS containing calcium and magnesium (PBS++, pH 7.4) and emptied wells were filled with 100 μL of the resazurin diluted solution. After 4 h incubation at 37° C. with the peptide treated cells, fluorescence intensity was measured using microplate reader (SynerMix, Bioteck) (excitation wavelength of 530 nm/emission wavelength of 590 nm). The fluorescence values were normalized by the controls and expressed as percentage of cell viability. The IC50 values of tested AMP on cell viability (i.e. the concentration of peptides causing a reduction of 50% of the cell viability) were calculated using GraphPad® Prism 7 software. Two cell lines were tested: Human Bronchial Epithelial Cell Line (BEAS; ATCC CRL-9609) and Human umbilical vein endothelial cell (HUVEC).

[4] = Cytotoxicity, resazurin cell viability; assay type: cell-based, human; conditions: human, 80 μM, 48 h
Method: as §1

[5] = system: Human umbilical vein endothelial cell (HUVEC); assay: Cytotoxicity, resazurin cell viability; assay type: cell-based; conditions: even at doses>80 μM
Method: as §1

[6] = system: Mycobacterium tuberculosis mc^26230
P. aeruginosa [7] = assay: Serial passage/resistance assay; assay type: cell-based, Pseudomonas aeruginosa; conditions: continuous exposure to sub-lethal doses, 30 days
[8] = system: Bacillus subtilis (ATCC 6633); assay: MIC, broth microdilution; assay type: cell-based; conditions: Table IV, strain description
Method: To standardize the bacterial cell suspension for assay of antibacterial activity, some colonies of each strain grown overnight on MHA (Mueller Hinton Agar. ROTH) plates were suspended in MHB (Mueller Hinton Broth. ROTH) or MHB saline (Mueller Hinton Broth containing 565 mM NaCl) and incubated at 37° C. or 30° C. until visible turbid. This log-phase inoculum was diluted 1:100 in the same culture media. Using sterile 96-well microtiter plates (CELLSTAR. Greiner bio-one), serial 2-fold dilutions (40 to 0.78 μM) of each peptide were prepared in cation-adjusted acetic acid 0.02% with 0.4% BSA (Bovin Serum Albumin fraction V. Boehringer) at a volume of 10 μL/well. Each well was inoculated with 100 μL of the standardized bacterial inoculum, corresponding to a final test concentration of about 10^5 CFU/mL. Antimicrobial activities were expressed as the MIC (Minimal Inhibitory Concentration), the lowest concentration of peptide at which 100% inhibition of microbial growth was observed after 24 h of incubation at 37° C. or 30° C. by measuring OD600 in a microtiter plate reader. The minimal bactericidal concentration (MBC) was defined as the peptide concentration where no colony growth was observed.
The same experiments as described in 1) were performed. For the evaluation of antimicrobial activity against some other strains, a resazurin microtiter assay was used as explained hereinafter.

[9] = system: B. subtilis nisin resistant (DSMZ 347); conditions: Table IV, strain description
P. aeruginosa [10] = assay: Membrane permeabilization assay (propidium iodide); assay type: cell-based, Pseudomonas aeruginosa; conditions: 2.5 min of incubation, 37° C., 3 times their MIC; CTAB at 300 μM
Method: Several tests were performed to determine the mechanism of the antimicrobial activity of the peptides of the invention. Most of the cationic AMP can increase the permeability of the bacterial membrane through pore-forming activity. We evaluated the ability of Michelicin to cause pore-formation using P. aeruginosa as model bacteria. Permeabilization of the bacterial membrane by Michelicin was evaluated using the cell-impermeable DNA probe propidium iodide (PI) (Di Pasquale et al., 2010; Oyama et al., 2017). PI can interact with DNA/RNA, leading to increase in fluorescence of the molecule. The bacterial membrane is impermeable to PI preventing its interaction with intracellular DNA/RNA. Thus, fluorescence of PI (expressed as RFU: relative fluorescence unit) only increases if membrane integrity is compromised through pore-formation. We measured the time-dependent effect of our peptide and other molecules on PI fluorescence at 37° C., all molecules being tested at 3 times their MIC. […] Kinetics of fluorescence variations (excitation at 530 nm/emission at 590 nm) were recorded using a microplate reader (SynergyMx, Bioteck) over 80 min period at 37° C. […] The permeabilization effect of the tested compound (i.e., Michelicin, Alvinellacin, Arenicin, and control, PMB or CTAB) was expressed as percentage of total permeabilization caused by CTAB.

## CC[C@H](C)[C@@H]1NC(=O)[C@H](CCCNC(=N)N)NC(=O)[C@H](C(C)C)NC(=O)[C@@H](NC(=O)[C@@H](NC(=O)[C@@H](N)CCCNC(=N)N)C(C)C)CSSC[C@@H](C(=O)N[C@@H](Cc2c[nH]c3ccccc23)C(=O)N[C@@H](CC(N)=O)C(=O)N[C@H](C(=O)O)[C@@H](C)O)NC(=O)[C@H](CCCNC(=N)N)NC(=O)[C@H](CCCNC(=N)N)NC(=O)[C@H](Cc2ccc(O)cc2)NC(=O)[C@@H]2CSSC[C@H](NC1=O)C(=O)N[C@@H](CCCNC(=N)N)C(=O)N[C@@H](CC(N)=O)C(=O)NCC(=O)N[C@@H](CCCNC(=N)N)C(=O)N2 [Michelicin, RVC1VRIC2RNGRC3YRRC4WNT] (H-RVCVRICRNGRCYRRCWNT-OH; disulfide 3-16, 7-12)
[1]
  Cytotoxic activity towards IMR90 cells: not observed
Vibrio alginolyticus
  MIC with 565 mM NaCl: 0.62 to 1.25 µM
  V. alginolyticus MIC: 1.25 to 2.5 µM
Vibrio alginolyticus; 24 h
  MIC: 0.07 to 0.15 µM
M. smegmatis mc^2155
  M. smegmatis mc^2155 MIC: 0.57 to 2.15 µM
Human erythrocytes; 1.2 to 40 μM, 60 min at 37° C., FIG. 2
  Effect on hemolysis: far less than the effect of Arenicin
Human erythrocytes; even at doses>80 μM
  Hemolytic activity: not observed
P. aeruginosa [2]
  P. aeruginosa MIC: 2.5 to 5 µM
[3]
  Cytotoxic activity towards BEAS cells: not observed
[4]; BEAS human bronchial epithelial cells (ATCC CRL-9609), read-out: % of viability, BEAS cells
  viability at 48 h, 80 µM: 100%
[4]; HUVEC (human umbilical vein endothelial cells), read-out: % of viability, HUVEC cells
  viability at 48 h, 80 µM: 95%
[5]
  Cytotoxic activity towards HUVEC cells: not observed
[6]
  M. tuberculosis mc^26230 MIC: 12.3 to 13.0 µM
  MIC: 12.3 to 13.0 µM

## CO/N=C1\CN(c2nc3c(cc2F)c(=O)c(C(=O)O)cn3C2CC2)CC1CN (stereo not drawn) [Gemifloxacin]
P. aeruginosa [7]
  Resistance induction / fold increase in initial MIC (in words): relevant

## Nisin
[8]
  MIC Nisin: (MIC Nisin < 0.09 μg/mL)
[9]
  MIC Nisin: MIC (Nisin 3 μg/mL)

## polymyxin B [PMB]
P. aeruginosa [10]
  Permeabilization (percentage of total permeabilization caused by CTAB): 2-5%
